# Columns and labels:
# [1] = system: CD44hi CD4+ TCR transgenic T cells; experiment: Mouse experiment with dietary L-arginine: transferred HA TCR transgenic T cells in draining lymph nodes; format: in vivo, BALB/c mice; settings: daily oral 1.5 mg/g body weight, 15 days after immunization with HA110-119 in CFA
# Protocol: 2×10^5 CD90.1^+ CD4^+ HA TCR-transgenic T cells, on a BALB/c background, were adoptively transferred in Wt CD90.2^4 BALB/c mice. The day after, host mice were immunized s.c. with influenza HA110-119 peptide (purchased from Anaspec) emulsified in CFA. L-Arg (1.5 g/kg body weight) or PBS, as control, was daily orally administrated, starting 1 day before T cell transfer and until the end of the experiment. Draining lymph nodes were analyzed on day 15 post immunization for the presence of transferred transgenic memory CD44^hi CD90.1^+ CD4^+ T cells. Sera were collected 30 min after oral L-arginine administration to mice and L-arginine and L-threonine concentrations in sera were measured on a MassTrak (Waters) instrument at the functional genomics center in Zurich. To determine intracellular L-arginine levels, activated T cells were isolated from draining lymph nodes 60 hours after activation and 30 min after the daily L-arginine administration. Metabolites were extracted with hot 70% ethanol and analyzed by HILIC LC-MS/MS.
# T cell proteome = experiment: Limited proteolysis and mass spectrometry (structural changes); format: binding, human
# human naïve CD4+ T cells = experiment: proteome analysis of T cells activated in L-arginine-supplemented medium; format: cell-based
# Protocol: Samples were processed as described by (Hornburg et al., 2014). In brief, cell pellets were washed with PBS and lysed in 4% SDS, 10 mM HEPES (pH 8), 10 mM DTT. Cell pellets were heat-treated at 95° C. for 10 min and sonicated at 4° C. for 15 min (level 5, Bioruptor, Diagenode). Alkylation was performed in the dark for 30 min by adding 55 mM iodoacetamide (IAA). Proteins were precipitated overnight with acetone at −20° C. and resuspended the next day in 8 M Urea, 10 mM Hepes (pH 8). A two-step proteolytic digestion was performed. First, samples were digested at room temperature (RT) with LysC (1:50, w/w) for 3 h. Then, they were diluted 1:5 with 50 mM ammoniumbicarbonate (pH 8) and digested with trypsin (1:50, w/w) at RT overnight. The resulting peptide mixtures were acidified and loaded on C18 StageTips (Rappsilber et al., 2007). […]
# Peptides were separated on an EASY-nLC 1000 HPLC system (Thermo Fisher Scientific, Odense, Denmark) coupled online to a Q Exactive mass spectrometer via a nanoelectrospray source (Thermo Fisher Scientific) (Michalski et al., 2011). […] Operational parameters were real-time monitored by the SprayQC software (Scheltema and Mann, 2012). […]
# MaxQuant software (version 1.3.10.18) was used to analyze MS raw files (Cox and Mann, 2008). […] Nonlinear retention time alignment of all measured samples was performed in MaxQuant. […]
# mTOR = experiment: Analysis of phosphorylation levels of 4E-BP and S6K1; format: cell-based, human; settings: 3 mM L-arginine supplementation, 4 days activated
# Protocol: Naïve CD4^+ T cells were activated with plate-bound antibodies to CD3 and CD28. Four days after activation, cells were lysed and analyzed by Western blot with the following antibodies obtained from Cell Signaling Technology. Phospho-p70 S6K(Thr389) #9205; p70 S6 Kinase #9202; Phospho-4E-BP1 (Thr37/46) #2855; 4E-BP1 #9644. Rapamycin (Sigma) was used at 100 nM.
# activated CD4+ T cells = experiment: IL-2 withdrawal assay and assessment of cell viability, CD4+ T cells; format: cell-based, human
# Protocol: Naïve CD4 T cells were activated with plate-bound CD3 and CD28 antibodies. 48 h after activation IL-2 was added to culture media (500 U ml^−1). After a further 3 days of culturing, cells were washed, counted and equal cell numbers were plated in medium devoid of IL-2. The withdrawal medium was no longer supplemented with e.g. L-arginine. Cell viability was assessed with annexin V.
compound,measurement,setting,value
N=C(N)NCCC[C@H](N)C(=O)O [L-arginine],CD44hi CD4+ TCR transgenic T cells recovered in draining lymph nodes compared to control mice,[1],Three times more
same,protein domains affected by structural changes,T cell proteome; 1 mM L-arginine,affect the PHD domain of BAZ1B and the AT-hook DNA-binding domain of PSIP1
same,"number of proteins (out of 5,856 identified) with structural change exclusively in response to L-arginine","T cell proteome; 1 mM, not affected by D-arginine or L-ornithine, six donors",20
same,Sirtuin-1 copy numbers,human naïve CD4+ T cells; L-Arg-medium vs normal medium,up-regulates
same,"number of proteins with significantly different expression (out of 7,243)",human naïve CD4+ T cells; L-arginine-supplemented medium,202
same,phosphorylation levels of two targets of mTOR (p70 S6K1 and 4E-BP),mTOR,did not change
same,time of addition after T cell activation at which most effective on survival,activated CD4+ T cells; L-Arg 3 mM added at indicated time points,≤ 48 h
same,survival of activated CD4+ T cells in the absence of exogenous cytokines,"activated CD4+ T cells; metabolites 3 mM, except for spermidine 0.1 mM, 5 days after IL-2 withdrawal",significantly increased
